In ChEMBL document CHEMBL2390851, “Synthesis and preliminary in vitro biological evaluation of 7α-testosterone-chlorambucil hybrid designed for the treatment of prostate cancer” (Eur J Med Chem, 2013) one finds IC50 and Activity data, which are given here for two molecules.

Format in all cases: functional, cell-based
For assay [1], the system named is PC-3. The experiment in a line: Cytotoxicity against androgen receptor deficient human PC3 cells after 72 hrs by MTT assay. The conditions noted are these: PC-3, 72 h. On the technique in general: Tetrazolium dyes change colour on reduction, which living cells bring about.
The subject of assay [2] is LNCaP. The experiment in a line: Cytotoxicity against human LNCAP cells expressing androgen receptor after 72 hrs by MTT assay.
Assay [3] relates to PC-3. Nature of the assay: Cytotoxicity against androgen receptor deficient human PC3 cells at 160 uM after 72 hrs by MTT assay.

Broadly, the IC50 is the concentration at which inhibition is half-maximal. The low end stands for inhibition by little substance, the high end for a need for much substance.

Each structure is given as a SMILES string. Active and inactive are the calls of the source. The rule behind the calls is not given here.

Turning to `O=C(O)CCCc1ccc(N(CCCl)CCCl)cc1` [CHLORAMBUCIL], the IC50 in assay [1] is 131 µM; in assay [2], 124 µM.
For `C[C@]12CC[C@H]3[C@@H]([C@H](C/C=C/COC(=O)CCCc4ccc(N(CCCl)CCCl)cc4)CC4=CC(=O)CC[C@@]43C)[C@@H]1CC[C@@H]2O` (mixture of isomers), the result in assay [3] was inactive. Moreover, half-maximal inhibition in assay [2] (IC50) required 101 µM.
